From article PMC8397425, “A Strategy to Conjugate Bioactive Fragments to Cytotoxic Diiron Bis(cyclopentadienyl) Complexes” (Organometallics, 2021)

What was measured:
[1] = target: T1, bovine serum albumin (BSA) (Bos taurus, UniProt P02769); experiment: BSA fluorescence quenching titration; type: binding; details: pH 7.0 buffer, NaCl 0.1 M, NaCac 0.01 M; for Log K (binding constant, compound/BSA): 1:1 model, 25 °C
T1 construct: bovine serum albumin (BSA, lyophilized powder, crystallized, ≥98.0%); purchased Merck
T1 sequence (P02769 25-607): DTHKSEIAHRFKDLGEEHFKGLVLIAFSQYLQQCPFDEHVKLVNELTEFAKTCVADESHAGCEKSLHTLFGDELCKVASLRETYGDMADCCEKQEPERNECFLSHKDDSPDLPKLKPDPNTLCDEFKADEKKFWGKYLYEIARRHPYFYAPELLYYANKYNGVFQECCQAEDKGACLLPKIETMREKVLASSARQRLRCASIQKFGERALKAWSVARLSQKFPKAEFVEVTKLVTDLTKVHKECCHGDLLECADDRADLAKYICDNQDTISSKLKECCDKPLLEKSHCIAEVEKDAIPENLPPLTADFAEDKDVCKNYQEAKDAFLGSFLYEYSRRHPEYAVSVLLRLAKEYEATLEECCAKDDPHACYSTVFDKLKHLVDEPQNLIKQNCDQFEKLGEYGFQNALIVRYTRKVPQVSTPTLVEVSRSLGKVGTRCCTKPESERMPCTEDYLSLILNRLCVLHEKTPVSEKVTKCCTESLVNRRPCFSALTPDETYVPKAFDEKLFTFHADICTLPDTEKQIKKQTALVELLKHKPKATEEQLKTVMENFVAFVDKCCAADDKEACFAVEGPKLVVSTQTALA
Excerpt: The interaction of [4]CF3SO3 and [9]CF3SO3 with bovine serum albumin (BSA) as a model protein was also explored. The addition of the metal complex to the protein in pH buffer solution (pH 7.0 buffer; NaCl 0.1 M, NaCac 0.01 M) produced a quenching of the intrinsic fluorescence emission of the latter. A data fit, according to the Stern–Volmer equation,[11] provided quenching constants (KSV) values equal to ca. 3.4 × 10^4 for both systems, indicative that a binding event occurs (Figure S1).[32] […] More precisely, the binding constant (10^6) appears to be high enough to ensure adduct formation but also weak enough to release the complex once the biotarget is reached; this is assumed to be the optimal condition for BSA-driven transport and diffusion of a drug.[34]
Ethidium bromide (EB, ≥98.0%), bovine serum albumin (BSA, lyophilized powder, crystallized, ≥98.0%), and natural double-stranded DNA from calf thymus (DNA, lyophilized powder, Na^+ salt in the form of fibers) were purchased from Merck, while anhydrous guanosine 5′-monophosphate disodium salt (Na2[GMP], >98.0%) was purchased from TCI Chemicals. Prior to use, DNA was sonicated to ca. 500 base pair length (MSE-Sonyprep sonicator, 7 cycles of 10 s sonication + 20 s pause at an amplitude of 14 μm, solution kept in ice bath—the final length was checked by agarose gel electrophoresis tests on the sample using a 100 bp DNA ladder) to produce stock solutions in water (ca. 2 mM). Stock solutions of EB and BSA were prepared by weighing directly in the buffer (NaCl 0.1 M, NaCac 0.01M, pH 7.0—NaCac is sodium cacodylate). […] Molar concentrations of solutions of EB (CEB), BSA (CBSA), and DNA (CDNA) were determined by absorbance measurements (εEB^480 nm = 5700 M^–1 cm^–1; εBSA^278 nm = 44000 M^–1 cm^–1; εDNA^260 nm = 13200 M^–1 cm^–1 for a concentration expressed in base pairs). […] In EB/DNA exchange experiments, EB was added to DNA until the fluorescence emission at λex = 520 nm/λem = 595 nm (diagnostic wavelengths for the DNA-intercalated EB only) started to reach the plateau (CEB = 5.60 × 10^–5 M, CDNA = 1.15 × 10^–4 M). […] The total maximum amount of DMSO was checked (<3%) as well as the metal complex absorbance at the set wavelengths (A < 0.05 to ensure negligible inner filter effects). Note that a blank test was carried out by adding DMSO to the EB/DNA mixture, in order to quantify fluorescence changes due only to dilution/solvent effects. For BSA fluorescence titrations, the working solution of the metal complex (4.42 × 10^–5 M for [4]CF3SO3, 4.59 × 10^–5 M for [9]CF3SO3, both in the buffer) was added to a 3.34 × 10^–7 M BSA solution in the buffer (λex = 280 nm, λem = 345 nm, dilution from stock such that the DMSO content is negligible). […]

[2] = test system: Human Ovarian Carcinoma (A2780) cell line; experiment: MTT cytotoxicity, A2780; type: cell-based; details: for IC50: 72 h exposure, MTT, mean ± SD
Excerpt: Human ovarian carcinoma (A2780 and A2780cisR) cell lines were obtained from the European Collection of Cell Cultures. The Human Embryonic Kidney 293T (HEK 293T) cell line was obtained from the ATCC (Sigma, Buchs, Switzerland). Penicillin–streptomycin, RPMI 1640 GlutaMAX (where RPMI = Roswell Park Memorial Institute), and DMEM GlutaMAX media (where DMEM = Dulbecco’s modified Eagle medium) were obtained from Life Technologies, and fetal bovine serum (FBS) was obtained from Sigma. The cells were cultured in RPMI 1640 GlutaMAX (A2780 and A2780cisR) and DMEM GlutaMAX (HEK 293T) media containing 10% heat-inactivated FBS and 1% penicillin–streptomycin at 37 °C and CO2 (5%). The A2780cisR cell line was routinely treated with cisplatin (2 μM) in the media to maintain cisplatin resistance. The cytotoxicity was determined using the 3-(4,5-dimethyl-2-thiazolyl)-2,5-diphenyl-2H-tetrazolium bromide (MTT) assay.[42] Cells were seeded in flat-bottomed 96-well plates as a suspension in a prepared medium (100 μL aliquots and approximately 4300 cells/well) and preincubated for 24 h. Stock solutions of compounds were prepared in DMSO and were diluted in the medium. The solutions were sequentially diluted to give a final DMSO concentration of 0.5% and a final compound concentration range of 0–200 μM. Cisplatin was tested as a positive (0–100 μM) control. The compounds were placed in the preincubated 96-well plates in 100 μL aliquots, and the plates were incubated for a further 72 h. MTT (20 μL, 5 mg/mL in Dulbecco’s phosphate buffered saline) was placed in the cells, and the plates were incubated for a further 4 h. The culture medium was aspirated, and the purple formazan crystals, formed by the mitochondrial dehydrogenase activity of vital cells, were dissolved in DMSO (100 μL/well). The absorbance of the resulting solutions, directly proportional to the number of surviving cells, was quantified at 590 nm using a SpectroMax M5e multimode microplate reader (using SoftMax Pro software, version 6.2.2). The percentage of surviving cells was calculated from the absorbance of wells corresponding to the untreated control cells. The reported IC50 values are based on the means from two independent experiments, each comprising four tests per concentration level.

[3] = test system: natural double-stranded DNA from calf thymus; experiment: Ethidium bromide (EB) exchange test with DNA; type: binding; details: NaCl 0.1 M, NaCac 0.01 M, T = 25 °C; complex 1.4–135 μM
Method: The ability of [4]CF3SO3 and [9]CF3SO3 to interact with natural DNA was studied using the ethidium bromide (EB) exchange test (Figure 6), with the concentration of the complexes beingin the 1.5–124 μM range for [4]CF3SO3 and 1.4–135 μM for [9]CF3SO3. Blank experiments were carried out with the two bioactive molecules and also with DMSO to check for solvent/dilution effects. […] However, EB exchange titrations are suitable to recognize fast noncovalent binding events, but not subsequent slow covalent binding. […]
Ethidium bromide (EB, ≥98.0%), bovine serum albumin (BSA, lyophilized powder, crystallized, ≥98.0%), and natural double-stranded DNA from calf thymus (DNA, lyophilized powder, Na^+ salt in the form of fibers) were purchased from Merck, while anhydrous guanosine 5′-monophosphate disodium salt (Na2[GMP], >98.0%) was purchased from TCI Chemicals. […] Molar concentrations of solutions of EB (CEB), BSA (CBSA), and DNA (CDNA) were determined by absorbance measurements (εEB^480 nm = 5700 M^–1 cm^–1; εBSA^278 nm = 44000 M^–1 cm^–1; εDNA^260 nm = 13200 M^–1 cm^–1 for a concentration expressed in base pairs). […] In EB/DNA exchange experiments, EB was added to DNA until the fluorescence emission at λex = 520 nm/λem = 595 nm (diagnostic wavelengths for the DNA-intercalated EB only) started to reach the plateau (CEB = 5.60 × 10^–5 M, CDNA = 1.15 × 10^–4 M). […]

Log K (binding constant, compound/BSA) [1]	Stern–Volmer quenching constant (KSV) [1]	Substance	IC50 [2]	interaction with natural DNA (EB displacement) [3]	selectivity (SI) ([2]; HEK 293T relative to A2780)
5.9 ± 0.1	ca. 3.4 × 10^4	[Fe2Cp2(CO)(μ-CO){μ-η^1:η^3-Cγ(3-C6H4OC(=O)C6H4OC(=O)Me)CβHCαNMe(Xyl)}]CF3SO3 [[4]CF3SO3]	2800 ± 400 nM	interact weakly with natural DNA	
6.5 ± 0.1	ca. 3.4 × 10^4	[Fe2Cp2(CO)(μ-CO){μ-η^1:η^3-Cγ(3-C6H4NHC(=O)(CH2)3C6H4N(CH2CH2Cl)2)CβHCαNMe2}]CF3SO3 [[9]CF3SO3]	1800 ± 300 nM	interact weakly with natural DNA	5
